Measurements from US9789181B2, “PAN-DR binding polypeptides and uses thereof” (Epimmune Inc., priority 2009, dated 2017).
Numbering of substitutions follows the chain as printed. Names may count otherwise. Where no end group is shown, it is not given here.

Legend:
HLA DRB1 *0901 = HLA DRB1 *0901 (Homo sapiens, UniProt P01903+P01911, A100R/A103E/D57H/D86V/F55Y/F60I/F76Y/I96F/K127E/L162R/M171V/P40D/Q125H/Q99R/R33Q/R42F/S133A/S66N/T210M/V115G/W38K/Y107V/Y59G/Y89S); assay: IC50nM to purified HLA | DRB1 *0901
Experimental: (§1) Table printed on a drawing sheet, FIG. 1 (contd.)
Head of the field: IC50nM to purified HLA | DRB1 *0901
(§2) First copying reader's note: Continued from an earlier sheet of FIG. 1; decimal commas as printed, analog names encode substituted residues and positions, and some values are printed in italics or bold and some SEQ ID NOs underlined without a legend on this sheet.
Where the first naming reader finds the target: head: IC50nM to purified HLA | DRB1 *0901

HLA DRB1 *1101 = HLA DRB1 *1101 (Homo sapiens, UniProt P01903+P01911, A100R/A169T/A87E/I96F/K41T/L162R/M171V/P40S/Q125H/Q178H/Q39Y/Q99D/R42S/S66Y/T262R/V115G/W38E); assay: IC50nM to purified HLA | DRB1 *1101
Experimental: as §1
Head of the field: IC50nM to purified HLA | DRB1 *1101
as §2
Where the first naming reader finds the target: head: IC50nM to purified HLA | DRB1 *1101

HLA DRB1 *0301 = HLA DRB1 *0301 (Homo sapiens, UniProt P01903+P01911, A100K/A102G/A103R/A169T/F55Y/I96L/K41T/L162R/M171V/P40S/Q125H/Q178H/Q39Y/R42S/S66N/T106N/T262R/W38E/Y61H); assay: IC50nM to purified HLA | DRB1 *0301
Experimental: as §1
Head of the field: IC50nM to purified HLA | DRB1 *0301
as §2
Where the first naming reader finds the target: head: IC50nM to purified HLA | DRB1 *0301

HLA DRB4 *0101 = HLA DRB4 *0101 (Homo sapiens, UniProt P01903+P13762, G164S); assay: IC50nM to purified HLA | DRB4 *0101
Experimental: as §1
Head of the field: IC50nM to purified HLA | DRB4 *0101
as §2
Where the first naming reader finds the target: head: IC50nM to purified HLA | DRB4 *0101

HLA DRB5 *0101 = HLA DRB5 *0101 (Homo sapiens, UniProt P01903+Q30154); assay: IC50nM to purified HLA | DRB5 *0101
Experimental: as §1
Head of the field: IC50nM to purified HLA | DRB5 *0101
as §2
Where the first naming reader finds the target: head: IC50nM to purified HLA | DRB5 *0101

HLA DRB1 *0405 = HLA DRB1 *0405 (Homo sapiens, UniProt P01903+P01911, A100R/A169T/D86S/F76Y/I96L/K127E/L162R/M171V/N62H/P40V/Q125Y/R42H/S133A/S149N/S66Y/V115G/V209L/W38E); assay: IC50nM to purified HLA | DRB1 *0405
Experimental: as §1
Head of the field: IC50nM to purified HLA | DRB1 *0405
as §2
Where the first naming reader finds the target: head: IC50nM to purified HLA | DRB1 *0405

HLA DRB1 *0404 = HLA DRB1 *0404 (Homo sapiens, UniProt P01903+P01911, A100R/A169T/F76Y/I96L/K127E/L162R/M171V/N62H/P40V/Q125Y/R42H/S133A/S149N/S66Y/V209L/W38E); assay: IC50nM to purified HLA | DRB1 *0404
Experimental: as §1
Head of the field: IC50nM to purified HLA | DRB1 *0404
as §2
Where the first naming reader finds the target: head: IC50nM to purified HLA | DRB1 *0404

HLA DRB1 *1501 = HLA DRB1 *1501 (Homo sapiens, UniProt P01903+P01911); assay: IC50nM to purified HLA | DRB1 *1501
Experimental: as §1
Head of the field: IC50nM to purified HLA | DRB1 *1501
as §2
Where the first naming reader finds the target: head: IC50nM to purified HLA | DRB1 *1501

HLA DRB1 *0701 = HLA DRB1 *0701 (Homo sapiens, UniProt P01903+P01911, A100R/A102G/A103Q/D57E/D86V/E43K/F76Y/K127E/L162R/M171V/P40G/Q125H/Q99D/R33Q/R42Y/R54Q/S133A/S66F/T210M/V115G/Y107V/Y59L/Y89S); assay: IC50nM to purified HLA | DRB1 *0701
Experimental: as §1
Head of the field: IC50nM to purified HLA | DRB1 *0701
as §2
Where the first naming reader finds the target: head: IC50nM to purified HLA | DRB1 *0701

HLA DRB1 *0101 = HLA DRB1 *0101 (Homo sapiens, UniProt P01903+P01911, A100R/D57E/F55L/F60I/F76Y/I96L/L162R/M171V/P40L/Q125E/R42F/V115G/Y59C); assay: IC50nM to purified HLA | DRB1 *0101
Experimental: as §1
Head of the field: IC50nM to purified HLA | DRB1 *0101
as §2
Where the first naming reader finds the target: head: IC50nM to purified HLA | DRB1 *0101

[1] = system: crude extract from E. coli; assay: In situ protease assay: TNFα variants in E. coli crude extract, SDS-PAGE and Western blot; format: in vitro ADME; conditions: E. coli crude extract, immunoblot; data not shown
Experimental: In order to test the protease resistance of selected, good binding PADRE analogues, their sequences were inserted by cloning techniques into a loop (loop EF) in human TNFα. Cell-free protein crude extract from E. coli expressing the modified TNFα molecules was prepared and proteolytic cleavage within the PADRE analogue sequences was analysed by SDS-PAGE followed by immunoblotting.
A synthetic cDNA encoding TNF (Y87S) was used as template. Oligonucleotides encoding PADRE or PADRE analogues were inserted into the template between A185 and E186 by PCR (cf. above). Resulting cDNAs were cloned into pET28b+(Novagen) and transformed into E. coli strain HMS 174. For recombinant expression, the resulting E. coli strains were cultured in fermentors in a defined medium at 37° C. Induction of recombinant expression was initiated by the addition of 1 mM of IPTG and temperature was lowered to 25° C. Cultures were harvested at 4, 8 or 24 h post-IPTG induction. TNFα variants were purified to >90% homogeneity by affinity chromatography using a TNFα specific monoclonal antibody as described in Nielsen et al., (2004), J Biol. Chem. 279:33593-33600. The purified TNFα variants were characterized by MALDI-TOF mass spectrometry to verify their identity and integrity.
In Situ Protease Assay: Analysis of the Protease Resistance of TNF-α Variants Using Western Blot
Aliquots (1 ml) of E. coli cell cultures, expressing the various TNF-α variants to be tested, were centrifuged (5000 g/5 min/5° C.) and the culture medium was discarded. Cell pellets were resuspended in 1 ml of 20 mM Bis-Tris, pH 6.0. Cell disruption was achieved by sonication (4×15 sec at an amplitude of 11 μm with 20 sec pauses between each sonication round). The resulting suspensions were centrifuged (20000 g/30 min/8° C.) and the supernatants (crude extracts) were transferred to fresh tubes. Crude extracts were then analysed for protein content using a Bradford protein assay (Biorad). Equivalent amounts of proteins were loaded onto 4-12% NuPAGE gels (Novex). After SDS-PAGE, proteins were transferred onto nitrocellulose membrane by semi-dry blotting. For immunoreaction, incubation with rabbit TNFα antiserum (1 h; dilution 1:10 000) and with horse radish peroxidase-conjugated secondary antibody (Dako P448) were carried out in Tris 50 mM, NaCl 150 mM, EDTA 5 mM, Igepal 0.1%, gelatine 0.5%. Detection was with ECL™ reagents (GE Healthcare).

Chain of HLA DRB4 *0101 (P01903 26-254 limits assumed): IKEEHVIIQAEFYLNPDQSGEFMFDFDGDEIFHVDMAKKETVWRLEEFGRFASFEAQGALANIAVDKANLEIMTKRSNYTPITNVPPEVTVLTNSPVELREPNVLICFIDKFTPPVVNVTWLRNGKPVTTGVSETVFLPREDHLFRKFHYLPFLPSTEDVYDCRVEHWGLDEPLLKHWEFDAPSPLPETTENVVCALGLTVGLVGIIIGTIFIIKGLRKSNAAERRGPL
Chain of HLA DRB4 *0101 (P13762 whole entry G164S): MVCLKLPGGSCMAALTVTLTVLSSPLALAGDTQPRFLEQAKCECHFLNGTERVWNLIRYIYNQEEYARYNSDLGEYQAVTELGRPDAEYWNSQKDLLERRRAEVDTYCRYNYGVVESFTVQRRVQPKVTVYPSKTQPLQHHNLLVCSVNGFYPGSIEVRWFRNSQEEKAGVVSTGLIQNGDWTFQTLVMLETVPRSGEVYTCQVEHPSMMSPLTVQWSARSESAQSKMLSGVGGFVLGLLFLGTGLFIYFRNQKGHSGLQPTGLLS
Chain of HLA DRB1 *0301 (P01903 26-254 limits assumed, other chains not shown): as the sequence (P01903 26-254 limits assumed) above
Chain of HLA DRB1 *1101 (P01903 26-254 limits assumed, other chains not shown): as the sequence (P01903 26-254 limits assumed) above

AAAIFVAAFTLHAAA [SEQ ID NO: 71] showed an IC50 (HLA DRB1 *0901) of 80 nM, an IC50 (HLA DRB1 *1101) of 12 nM and an IC50 (HLA DRB1 *0301) of 442 nM. For the same molecule, the IC50 (HLA DRB4 *0101) was 117 nM, the IC50 (HLA DRB5 *0101) was 21 nM and the IC50 (HLA DRB1 *0405) was 14 nM. For the same molecule, the IC50 (HLA DRB1 *0404) was 2.7 nM, the IC50 (HLA DRB1 *1501) was 9.7 nM and the IC50 (HLA DRB1 *0701) was 206 nM. For the same molecule, the IC50 (HLA DRB1 *0101) was 12 nM.

B1: SEQ ID NO: 78: TNFα (Y87S) variant with the 12 C-terminal residues of SEQ ID NO: 23 inserted (protein)
chain: MVRSSSRTPSDKPVAHVVANPQAEGQLQWLNRRANALLANGVELRDNQLVVPSEGLYLIYSQVLFKGQGCPSTHVLLTHTISRIAVSSQTKVNLLSAIKSPCQRETPEGAYFVAAFTLHAAAEAKPWYEPIYLGGVFQLEKGDRLSAEINRPDYLDFAESGQVYFGIIAL
modifications: Synthetic TNF variant incorporating pan-DR binding peptide
For B1, the “protease resistance of TNF variants (proteolytic cleavage inside the PADRE analogue sequence)” value [1] was “protease resistant”.

B2: SEQ ID NO: 79: TNFα (Y87S) variant with the 12 C-terminal residues of SEQ ID NO: 29 inserted (protein)
chain: B1 chain with Y111H, F116N
modifications: Synthetic TNF variant incorporating pan-DR binding peptide
With B2 the “protease resistance of TNF variants (proteolytic cleavage inside the PADRE analogue sequence)” value [1] was “protease resistant”.

B3: SEQ ID NO: 84: TNFα (Y87S) variant with the 12 C-terminal residues of SEQ ID NO: 69 inserted (protein)
chain: B1 chain with Y111I, F116W
modifications: Synthetic TNF variant incorporating pan-DR binding peptide
In the case of B3, the “protease resistance of TNF variants (proteolytic cleavage inside the PADRE analogue sequence)” value [1] is reported as “protease resistant”.
